Test results as given in patent publication US9586986B2, “Substituted 7-deazapurine ribonucleosides for therapeutic uses” (Institute of Organic Chemistry and Biochemistry ASCR, v.v.i., priority 2014, dated 2017).

Legend:
Type in all cases: cell-based
[1] = system: CCRF-CEM; test: Cytostatic/cytotoxic MTT assay, CCRF-CEM; conditions: Homo sapiens, 72 h incubation, read-out: MTT, IC50 CCRF-CEM
Excerpt: (§1) Unless otherwise stated, all cells were purchased from the […] (ATCC). The CCRF-CEM line is derived from T lymphoblastic leukemia, evincing high chemosenzitivity, K562 represent cells from a […] patient sample with bcr-abl translocation, HCT116 is colorectal tumor cell line and its p53 gene knock-down counterpart (HCT116p53−/−, Horizon Discovery, UK) is a model of human cancers with p53 inactivation frequently associated with poor prognosis, A549 cell line is lung adenocarcinoma. The daunorubicin resistant subline of CCRF-CEM cells (CEM-DNR bulk) and paclitaxel resistant subline K562-TAX were selected in our laboratory by cultivation of maternal cell lines in increasing concentrations of daunorubicine or paclitaxel, respectively. The CEM-DNR cells overexpress mrp-1 and mdr-1 genes, while K562-TAX cells overexpress mdr-1 only. Both proteins belong to the family of ABC transporters and are involved in the primary and/or acquired multidrug resistance phenomenon (ref.: Gottesman, M. M.; Fojo, T.; Bates, S. E. Multidrug resistance in cancer: role of ATP-dependent transporters. Nat. Rev. Cancer. 2002, 2, 48-58. (b) Noskova, V.; Dzubak, P.; Kuzmina, G.; Ludkova, A.; Stehlik, D.; Trojanec, R.; Janostakova, A.; Korinkova, G.; Mihal, V.; Hajduch, M. In vitro chemoresistance profile and expression/function of MDR associated proteins in resistant cell lines derived from CCRF-CEM, K562, A549 and MDA MB 231 parental cells. Neoplasma 2002, 49, 418-425). Non-malignant MRC-5 and BJ cells, derived from normal human fibroblasts, were used as controls. The cells were maintained in Nunc/Corning 80 cm^2 plastic tissue culture flasks and cultured in cell culture medium (DMEM/RPMI 1640 with 5 g/L glucose, 2 mM glutamine, 100 U/mL penicillin, 100 µg/mL streptomycin, 10% fetal calf serum, and NaHCO3). Cell suspensions were prepared and diluted according to the particular cell type and the expected target cell density (25,000-30,000 cells/well based on cell growth characteristics). Cells were added by pipette (80 L) into 96-well microtiter plates. Inoculates were allowed a pre-incubation period of 24 h at 37° C. and 5% CO2 for stabilization. Four-fold dilutions, in 20-L aliquots, of the intended test concentration were added to the microtiter plate walls at time zero. All test compound concentrations were examined in duplicate. Incubation of the cells with the test compounds lasted for 72 h at 37° C., in a 5% CO2 atmosphere at 100% humidity. At the end of the incubation period, the cells were assayed using MTT. Aliquots (10 L) of the MTT stock solution (5 mg/ml) were pipetted into each well and incubated for another 1-4 h. After this incubation period the formazan produced was dissolved by addition of 100 µL/well of 10% aq SDS (pH 5.5), followed by a further incubation at 37° C. overnight. The optical density was measured at 540 nm. The IC50 value, the drug concentration inhibiting the cell growth by 50%, was calculated from appropriate dose-response curves.
(§2) In vitro cytotoxic/cytostatic activity final nucleosides 1-5 was initially evaluated against […] cell lines derived from human solid tumors including lung (A549 cells) and colon (HCT116 and HCT116p53−/−) carcinomas, as well as leukemia cell lines (CCRF-CEM, CEM-DNR, K562 and K562-TAX) and, for comparison, non-malignant BJ and MRC-5 fibroblasts. Concentrations inhibiting the cell growth by 50% (IC50) were determined using a quantitative metabolic staining with 3-(4,5-dimethylthiazol-2-yl)-2,5-diphenyltetrazolium bromide (MTT) (ref.: Denizot, F.; Lang, R. Rapid colorimetric assay for cell growth and survival: Modifications to the tetrazolium dye procedure giving improved sensitivity and reliability. J. Immunol. Meth. 1986, 89, 271-277) following a 3-day treatment.

[2] = system: BJ; test: Cytostatic/cytotoxic MTT assay, BJ fibroblasts; conditions: Homo sapiens, non-malignant fibroblasts, 72 h, read-out: MTT, IC50 BJ
Excerpt: as §1, §2

[3] = system: MRC-5; test: Cytostatic/cytotoxic MTT assay, MRC-5 fibroblasts; conditions: Homo sapiens, MRC5; non-malignant fibroblasts, 72 h; read-out: MTT, IC50 MRC-5
Excerpt: as §1, §2

[4] = system: HepG2; test: XTT cytotoxicity assay, HepG2; conditions: Homo sapiens, HepG2; 72 h incubation; read-out: XTT, IC50 HepG2
Method: (§3) HL-60, Hela S3 and HepG2 cell lines (ATCC) were grown in RPMI-1640 or DMEM medium supplemented with 10% fetal calf serum, […] of streptomycin, 200 U/mL of penicillin G and 4 mM glutamine in a humidified atmosphere containing 5% CO2 at 37° C. Sensitivity of these cell lines to the synthesized compounds was assessed with the use of XTT cell proliferation kit II (Roche Diagnostics GmbH, Mannheim, Germany) according to the manufacturer's instructions. Briefly, cells were seeded in a 96-well plate at a density of 10,000 cells per well (90 μL). After 24 h, 10 μL of the tested compounds were added to the culture media at desired concentration range and incubated for 72 h. After that 50 μL of the XTT solution was added (1 mg/mL XTT+0.383 mg/mL N-methyl dibenzopyrazine methyl sulfate). The absorbance was recorded at 495 nm following a 2 h-incubation with the dye. IC50 values were determined by non-linear regression method using GraphPad Prism version 5.00 for Windows (GraphPad Software, La Jolla, Calif., USA).

[5] = system: HL60; test: XTT cytotoxicity assay, HL-60; conditions: Homo sapiens, HL-60; 72 h incubation; read-out: XTT, IC50 HL60
Method: as §3
In addition, the anti-proliferative effect was tested against a human T-lymphoblastic leukemia line CCRF-CEM, promyelocytic leukemia HL-60 and cervical carcinoma HeLa S3 growing in liquid suspension. Cell viability was determined following a 3-day incubation using 2,3-bis-(2-methoxy-4-nitro-5-sulfophenyl)-2H-tetrazolium-5-carboxanilide (XTT) assay (ref.: Scudiero, D. A.; Shoemaker, R. H.; Paull, K. D.; Monks, A.; Tierney, S.; Nofziger, T. H.; Currens, M. J.; Seniff, D.; Boyd M. R. Evaluation of a Soluble Tetrazolium/Formazan Assay for Cell Growth and Drug Sensitivity in Culture Using Human and Other Tumor Cell Lines. Cancer Res. 1988, 48, 4827-4833).

[6] = system: Huh-7 cells harboring replicon 1B; test: Cytotoxicity in replicon 1B cells; conditions: HCV subtype 1B replicon
Method: Compounds were also tested in Huh-7 cells harboring sub-genomic reporter replicons derived from HCV subtypes 1B and 2A (ref.: Stuyver, L. J.; Whitaker, T.; McBrayer, T. R.; Hernandez-Santiago, B. I.; Lostia, S.; Tharnish, P. M.; Ramesh, M.; Chu, C. K.; Jordan, R.; Shi, J. X.; Rachakonda, S.; Watanabe, K. A.; Otto, M. J.; Schinazi, R. F. Antimicrob. Agents Chemother. 2003, 47, 244-254).

CNc1ncnc2c1c(-c1cccs1)cn2[C@@H]1O[C@H](CO)[C@@H](O)[C@H]1O [Compound 3c, 4-Methylamino-7-(β-D-ribofuranosyl)-5-(thiophen-2-yl)-7H-pyrrolo[2,3-d]pyrimidine]
IC50 [1]: > 20 µM
IC50 [2]: > 100 µM
IC50 [3]: > 100 µM
IC50 [4]: > 20 µM
IC50 [5]: > 20 µM
CC50 [6]: > 44 µM

CNc1ncnc2c1c(-c1cc3ccccc3o1)cn2[C@@H]1O[C@H](CO)[C@@H](O)[C@H]1O [Compound 3f, 5-(Benzofuran-2-yl)-4-methylamino-7-(β-D-ribofuranosyl)-7H-pyrrolo[2,3-d]pyrimidine]
IC50 [1]: > 20 µM
IC50 [2]: 75.6 µM
IC50 [3]: 75.3 µM
IC50 [4]: > 20 µM
IC50 [5]: 8.95 µM
CC50 [6]: > 44 µM

Cc1ncnc2c1c(-c1cc3ccccc3o1)cn2[C@@H]1O[C@H](CO)[C@@H](O)[C@H]1O [Compound 5f, 5-(Benzofuran-2-yl)-4-methyl-7-(β-D-ribofuranosyl)-7H-pyrrolo[2,3-d]pyrimidine]
IC50 [1]: 17.3 µM
IC50 [2]: 93.9 µM
IC50 [3]: 84.4 µM
IC50 [4]: > 20 µM
IC50 [5]: > 20 µM
CC50 [6]: > 44 µM

COc1ncnc2c1c(-c1ccoc1)cn2[C@@H]1O[C@H](CO)[C@@H](O)[C@H]1O [Compound 1b, 5-(Furan-3-yl)-4-methoxy-7-(β-D-ribofuranosyl)-7H-pyrrolo[2,3-d]pyrimidine]
IC50 [1]: 0.11 µM
IC50 [2]: 28.8 µM
IC50 [3]: 29.4 µM
IC50 [4]: 0.29 µM
IC50 [5]: 0.15 µM
CC50 [6]: > 44 µM

C#Cc1cn([C@@H]2O[C@H](CO)[C@@H](O)[C@H]2O)c2ncnc(C)c12 [Compound 5g, 5-Ethynyl-4-methyl-7-(β-D-ribofuranosyl)-7H-pyrrolo[2,3-d]pyrimidine]
IC50 [1]: 5.6 µM
IC50 [2]: 0.05 µM
IC50 [3]: 1.44 µM
IC50 [4]: 0.29 µM
IC50 [5]: 1.11 µM
CC50 [6]: > 44 µM

CN(C)c1ncnc2c1c(-c1ccco1)cn2[C@@H]1O[C@H](CO)[C@@H](O)[C@H]1O [Compound 4a, 4-Dimethylamino-5-(furan-2-yl)-7-(β-D-ribofuranosyl)-7H-pyrrolo[2,3-d]pyrimidine]
IC50 [1]: 2.91 µM
IC50 [2]: > 100 µM
IC50 [3]: > 100 µM
IC50 [4]: > 15 µM
IC50 [5]: 0.22 µM
CC50 [6]: > 44 µM

C#Cc1cn([C@@H]2O[C@H](CO)[C@@H](O)[C@H]2O)c2ncnc(SC)c12 [Compound 2g, 5-Ethynyl-4-methylsulfanyl-7-(β-D-ribofuranosyl)-7H-pyrrolo[2,3-d]pyrimidine]
IC50 [1]: > 20 µM
IC50 [2]: 68.6 µM
IC50 [3]: > 100 µM
IC50 [4]: > 15 µM
IC50 [5]: 0.05 µM
CC50 [6]: > 44 µM

CSc1ncnc2c1c(-c1ccsc1)cn2[C@@H]1O[C@H](CO)[C@@H](O)[C@H]1O [Compound 2d, 4-Methylsulfanyl-7-(β-D-ribofuranosyl)-5-(thiophen-3-yl)-7H-pyrrolo[2,3-d]pyrimidine]
IC50 [1]: > 20 µM
IC50 [2]: 95.8 µM
IC50 [3]: > 100 µM
IC50 [4]: > 15 µM
IC50 [5]: 4.59 µM
CC50 [6]: > 44 µM

COc1ncnc2c1c(-c1ccsc1)cn2[C@@H]1O[C@H](CO)[C@@H](O)[C@H]1O [Compound 1d, 4-Methoxy-7-(β-D-ribofuranosyl)-5-(thiophen-3-yl)-7H-pyrrolo[2,3-d]pyrimidine]
IC50 [1]: 2.57 µM
IC50 [2]: 64.3 µM
IC50 [3]: 75.3 µM
IC50 [4]: 0.43 µM
IC50 [5]: 0.13 µM
CC50 [6]: > 44 µM

CSc1ncnc2c1c(-c1ccoc1)cn2[C@@H]1O[C@H](CO)[C@@H](O)[C@H]1O [Compound 2b, 5-(Furan-3-yl)-4-methylsulfanyl-7-(β-D-ribofuranosyl)-7H-pyrrolo[2,3-d]pyrimidine]
IC50 [1]: 14.2 µM
IC50 [2]: 98.8 µM
IC50 [3]: > 100 µM
IC50 [4]: > 15 µM
IC50 [5]: 0.36 µM
CC50 [6]: > 44 µM

Cc1ncnc2c1c(-c1ccco1)cn2[C@@H]1O[C@H](CO)[C@@H](O)[C@H]1O [Compound 5a, 5-(Furan-2-yl)-4-methyl-7-(β-D-ribofuranosyl)-7H-pyrrolo[2,3-d]pyrimidine]
IC50 [1]: 0.04 µM
IC50 [2]: 0.07 µM
IC50 [3]: 0.61 µM
IC50 [4]: 0.3 µM
IC50 [5]: 0.21 µM
CC50 [6]: 6.62 µM

CN(C)c1ncnc2c1c(-c1ccoc1)cn2[C@@H]1O[C@H](CO)[C@@H](O)[C@H]1O [Compound 4b, 4-Dimethylamino-5-(furan-3-yl)-7-(β-D-ribofuranosyl)-7H-pyrrolo[2,3-d]pyrimidine]
IC50 [1]: 13.3 µM
IC50 [2]: 99.2 µM
IC50 [3]: > 100 µM
IC50 [4]: 12.5 µM
IC50 [5]: 1.16 µM
CC50 [6]: > 44 µM

CNc1ncnc2c1c(-c1ccoc1)cn2[C@@H]1O[C@H](CO)[C@@H](O)[C@H]1O [Compound 3b, 5-(Furan-3-yl)-4-methylamino-7-(β-D-ribofuranosyl)-7H-pyrrolo[2,3-d]pyrimidine]
IC50 [1]: > 20 µM
IC50 [2]: 96.3 µM
IC50 [3]: > 100 µM
IC50 [4]: > 20 µM
IC50 [5]: > 15 µM
CC50 [6]: > 44 µM

CNc1ncnc2c1c(-c1ccsc1)cn2[C@@H]1O[C@H](CO)[C@@H](O)[C@H]1O [Compound 3d, 4-Methylamino-7-(β-D-ribofuranosyl)-5-(thiophen-3-yl)-7H-pyrrolo[2,3-d]pyrimidine]
IC50 [1]: > 20 µM
IC50 [2]: > 100 µM
IC50 [3]: > 100 µM
IC50 [4]: > 20 µM
IC50 [5]: > 20 µM
CC50 [6]: > 44 µM
